Experimental data as given in patent US8513271B2, “Pyrimidine compounds as delta opioid receptor modulators” (Janssen Pharmaceutica, NV, priority 2009, dated 2013).
Like-named read-outs stand apart in the source and are kept apart here.

Target: T1, delta opioid receptor (Mus musculus, UniProt P32300)
T1 construct: NG108-15 cell membranes were purchased from Applied Cell Sciences (Rockville, Md.); host or cells: NG108-15 cell membranes
Test: [35S]GTPγS binding assay in NG108-15 cell membranes (delta opioid functional assay), 200 nM screen
Type: biochemical
Conditions: NG108-15 cell membranes; for EC50 / GTPγS δ-RelEfficacy @200 nM: averages if tested more than once; for GTPγS δ-opioid receptor Rel Efficacy: relative efficacy from dose response; for GTPγS δ-RelEfficacy @200 nM: 200 nM test compound, relative to calculated max of SNC80 dose response curve

[1] = GTPγS δ-opioid receptor EC50 (μM)
[2] = read-out: GTPγS δ-opioid receptor EC50

T1 sequence (P32300 whole entry): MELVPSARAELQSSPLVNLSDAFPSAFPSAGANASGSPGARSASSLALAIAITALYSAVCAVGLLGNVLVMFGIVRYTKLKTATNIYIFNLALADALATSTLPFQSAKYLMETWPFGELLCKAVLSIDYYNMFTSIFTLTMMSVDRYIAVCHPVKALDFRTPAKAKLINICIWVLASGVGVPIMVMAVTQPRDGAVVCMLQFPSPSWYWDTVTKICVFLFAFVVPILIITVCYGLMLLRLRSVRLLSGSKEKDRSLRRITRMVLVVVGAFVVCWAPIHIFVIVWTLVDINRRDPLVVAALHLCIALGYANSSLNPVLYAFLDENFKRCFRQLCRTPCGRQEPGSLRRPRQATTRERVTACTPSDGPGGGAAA

Row | Compound | EC50 [1] [µM] | GTPγS δ-opioid receptor Rel Efficacy | EC50 [2] [µM] | GTPγS δ-RelEfficacy @200 nM
1 | COc1ccc(Oc2nc(-c3cncc(OC)c3)ncc2N[C@H]2CCC[C@@H](N)C2)cc1 [Cpd 312, N-[4-(4-Methoxy-phenoxy)-2-(5-methoxy-pyridin-3-yl)-pyrimidin-5-yl]-cyclohexane-(1R,3S)-1,3-diamine] | 0.00435 | 1.007 | – | –
2 | COc1ccc(Oc2nc(-c3cncc(C)c3)ncc2NC2CCCC(N)C2)cc1 (centres unmarked) [Cpd 315] | 0.042 | 1.019 | – | –
3 | COc1ccc(Oc2nc(-c3cncc(SC)c3)ncc2N[C@H]2CCC[C@@H](N)C2)cc1 [Cpd 316] | 0.00338 | 0.977 | – | –
4 | COc1ccc(Oc2nc(-c3cncc(SC)c3)ncc2N[C@@H]2CCC[C@H](N)C2)cc1 [Cpd 317] | > 1 | – | – | –
5 | c1cncc(-c2ncc(N3CCNCC3)c(Oc3ccc(C4CC4)cc3)n2)c1 [Cpd 320] | – | 0.918 | 0.191 | –
6 | COc1ccc(Oc2nc(-c3cccnc3)ncc2N[C@H]2CCC[C@@H](N)C2)cc1 [Cpd 321] | 0.005 | 1.022 | – | –
7 | COc1ccc(Oc2nc(-c3cccnc3)ncc2N[C@@H]2CCC[C@H](N)C2)cc1 [Cpd 322] | 0.196 | 0.960 | – | –
8 | COc1ccc(Oc2nc(-c3ccccc3)ncc2N2CCNCC2)cc1 [Cpd 324] | – | 1.045 | 0.428 | 0.519
9 | COc1ccc(Oc2nc(-c3cncc(C#N)c3)ncc2N2CCNCC2)cc1 [Cpd 325] | 0.011 | 1.042 | – | 0.866
10 | COc1ccc(Oc2nc(-c3cncc(C#N)c3)ncc2N2CC[C@@H](N)C2)cc1 [Cpd 326] | 0.032 | 1.104 | – | 0.744
11 | COc1ccc(Oc2nc(-c3cncc(C#N)c3)ncc2N2CC[C@H](N)C2)cc1 [Cpd 328] | – | – | – | 0.377
12 | COc1ccc(Oc2nc(-c3cncc(C#N)c3)ncc2N2CCC[C@H](N)C2)cc1 [Cpd 329] | – | 1.006 | 0.138 | 0.475
13 | COc1ccc(Oc2nc(-c3cncc(C#N)c3)ncc2N2CCC[C@@H](N)C2)cc1 [Cpd 330] | – | 0.894 | 0.051 | 0.547
14 | COc1ccc(Oc2nc(-c3cncc(C#N)c3)ncc2N2CC(CN)C2)cc1 [Cpd 331] | – | 0.928 | 0.108 | 0.764
15 | COc1ccc(Oc2nc(-c3cncc(C#N)c3)ncc2N2CCC[C@@H]2CN)cc1 [Cpd 332] | – | – | – | 0.393
16 | COc1ccc(Oc2nc(-c3cncc(C#N)c3)ncc2N2CCC(N)CC2)cc1 [Cpd 333] | – | 1.116 | 0.118 | 0.664

Row | Compound | EC50 [1] [µM] | GTPγS δ-opioid receptor Rel Efficacy | EC50 [2] [µM] | GTPγS δ-RelEfficacy @200 nM
17 | COc1ccc(Oc2nc(-c3cncc(C#N)c3)ncc2N2CCC[C@@H]2CN)cc1 [Cpd 334] | – | – | – | 0.423
18 | COc1ccc(Oc2nc(-c3cncc(C#N)c3)ncc2N2CCNC(=O)C2)cc1 [Cpd 335] | – | – | – | 0.050
19 | COc1ccc(Oc2nc(-c3cncc(C#N)c3)ncc2N2CC3CC(C2)N3)cc1 [Cpd 338] | – | 0.956 | 0.197 | 0.723
20 | COc1ccc(Oc2nc(-c3cccnc3)ncc2N2CC[C@@H](N)C2)cc1 [Cpd 339] | – | – | – | 0.641
21 | COc1ccc(Oc2nc(-c3cncc(OC)c3)ncc2N2CCNCC2)cc1 [Cpd 342] | 0.0439 | 1.020 | – | –
22 | COc1ccc(Oc2nc(-c3cncc(C#N)c3)ncc2N2CCNC[C@H]2C)cc1 [Cpd 344] | 0.047 | 1.089 | – | 0.808
23 | COc1ccc(Oc2nc(-c3cncc(SC)c3)ncc2N2CC[C@@H](N)C2)cc1 [Cpd 348] | – | 0.689 | 0.101 | –
24 | COc1ccc(Oc2nc(-c3cncc(SC)c3)ncc2N2CCNC(C)(C)C2)cc1 [Cpd 350] | 0.083 | 1.079 | – | –
25 | COc1ccc(Oc2nc(-c3cncc(C)c3)ncc2N2CC[C@@H](N)C2)cc1 [Cpd 352] | 0.079 | 0.967 | – | –
26 | COc1ccc(Oc2nc(-c3cccnc3)ncc2N2CCN(C)CC2)cc1 [Cpd 353, 4-(4-Methoxy-phenoxy)-5-(4-methyl-piperazin-1-yl)-2-pyridin-3-yl-pyrimidine] | – | 0.651 | 0.27 | –
27 | COc1ccc(Oc2nc(-c3cccnc3)ncc2N2CCN[C@@H](C)C2)cc1 [Cpd 356] | – | 1.030 | 0.031 | –
28 | COc1ccc(Oc2nc(-c3cncc(C)c3)ncc2N2CCCNCC2)cc1 [Cpd 358] | – | 0.978 | 0.0242 | –
29 | COc1ccc(Oc2nc(-c3cccnc3)ncc2N2C[C@@H](C)N[C@@H](C)C2)cc1 [Cpd 359] | 0.034 | 0.709 | – | –
30 | CC[C@H]1CNCCN1c1cnc(-c2cncc(OC)c2)nc1Oc1ccc(OC)cc1 [Cpd 360] | 0.013 | 1.015 | – | –
31 | CC[C@@H]1CN(c2cnc(-c3cncc(OC)c3)nc2Oc2ccc(OC)cc2)CCN1 [Cpd 361] | 0.07 | 0.962 | – | –
